Test results reported in US12351628B2, “Modified membrane spanning proteins and methods for the preparation and use thereof” (priority 2014, dated 2025).
Values after ≈ are worked out from the molar mass of the structure shown. Read-outs that look alike come from different tables or passages of the source.

Tested on: E. coli strains (e.g. BL21 or DH10beta)
Assay: Growth of E. coli on LB medium with varying antibiotic concentrations (MIC), liquid and agar plates
Assay type: cell-based
Conditions: for Antibiotic concentration to which resistance is conferred: E. coli transformed with isolated mutated GPR55 clones; for MIC: Escherichia coli
Protocol: The construct library containing modified genes is then used to transform E. coli strains (e.g. BL21 or DH10beta). Growth is tested on LB medium with varying concentrations of kanamycin (MIC for untransformed cells is approximately 10 mg/L), both in liquid and agar plates.

[1] = E. coli containing a plasmid encoding wild type human GPR55
[2] = read-out: Apparent MIC, E. coli expressing certain constructs containing wild type rat NTSR1 (aa 43-424)

For `CC1(C)S[C@@H]2[C@H](NC(=O)C(C(=O)O)c3ccccc3)C(=O)N2[C@H]1C(=O)O` (stereo partly shown) [carbenicillin], the “Antibiotic concentration to which resistance is conferred” value was greater than 80 mg/L, the MIC [1] was roughly 40 µg/mL (≈ 106 µM) and the MIC [2] was greater than 75 µg/mL.

`NC[C@H]1O[C@H](O[C@H]2[C@H](O)[C@@H](O[C@H]3O[C@H](CO)[C@@H](O)[C@H](N)[C@H]3O)[C@H](N)C[C@@H]2N)[C@H](O)[C@@H](O)[C@@H]1O` [kanamycin] was tested, and the “Antibiotic concentration to which resistance is conferred” value was greater than 50 mg/L, the MIC [1] was roughly 25 µg/mL (≈ 51.6 µM) and the MIC [2] was greater than 50 µg/mL. The MIC (untransformed E. coli cells, LB medium) was roughly 10 µg/mL (≈ 20.6 µM).
